One assay has as its target IDH1R132C (Homo sapiens (Human), UniProt O75874, R132C). Nature of the assay: Inhibitory activity against IDH1R132C enzyme (NADPH detection, WST-8). It is filed as biochemical. The conditions noted are these: 10 nM, residual NADPH detected with WST-8, read-out: Test Example 1 IDH1 R132C IC50.
Assay [1] deals with HT-1080 cells expressing IDH1R132C. Description: 2-HG production inhibitory activity using HT1080 cell. It is filed as cell-based, human. The conditions noted are these: Homo sapiens. How it is done: Then, 100 μL of growth medium B was added to each well, further 25 μL of a solution of each compound diluted to a predetermined concentration with growth medium B was added to each well, and the cells were incubated at 37° C. for 2 days under 5% CO2. […] Then, 150 μL of ultrapure water was further added to each well, and the mixture was stirred by pipetting and stored at −20° C.
The preserved solutions were thawed at room temperature.

Assay [2] concerns HT1080 xenografted mice (IDH1R132C). Nature of the assay: 2-HG production inhibitory activity using HT1080 xenografted mice. Type of assay: in vivo, mouse. Conditions: Mus musculus, HT-1080, po, 6 h, read-out: Test Example 5 Ratio (%). As for the experimental part: HT1080 xenografted mice having successfully engrafted tumors were given by oral gavage each compound at 75 mg/kg a total of three times twice a day. The compound was suspended in a vehicle solution at 7.5 mg/mL using a homogenizer. Then, the suspension was stored at −20° C., thawed immediately before the administration, and given to mice. A negative control group for the test was given a vehicle by oral gavage. The body weights of the mice were measured using an automatic balance for small animals. The dosing solution was administered at a dose of 10 mL/kg body weight.
6 hours after the final administration, each mouse was euthanized with carbon dioxide. A portion of a tumor was collected, and its weight was measured using an electronic balance. Then, the tumor was frozen on dry ice. To the frozen tumor, methanol was added in an amount of 14 times the tumor weight. The resulting tumor was homogenized with Beads shocker (Yasui Kikai Corp.) and then incubated for 15 minutes in a freezer at −20° C. After centrifugation at 15000 rpm at 4° C. for 15 minutes using a high-speed refrigerated microcentrifuge, 250 μL of methanol and 400 μL of ultrapure water were added to 150 μL of the obtained supernatant. The prepared samples were subjected to 2-HG measurement.

[3] abbreviates: HT-1080, 2-HG production, HT1080 cells, read-out: Test Example 3 IC50.
The mark [4] stands for this setting: 2-HG production, HT1080 xenografted mice.

Like-named read-outs stand apart in the source and are kept apart here.

IDH1R132C, sequence (O75874 whole entry R132C): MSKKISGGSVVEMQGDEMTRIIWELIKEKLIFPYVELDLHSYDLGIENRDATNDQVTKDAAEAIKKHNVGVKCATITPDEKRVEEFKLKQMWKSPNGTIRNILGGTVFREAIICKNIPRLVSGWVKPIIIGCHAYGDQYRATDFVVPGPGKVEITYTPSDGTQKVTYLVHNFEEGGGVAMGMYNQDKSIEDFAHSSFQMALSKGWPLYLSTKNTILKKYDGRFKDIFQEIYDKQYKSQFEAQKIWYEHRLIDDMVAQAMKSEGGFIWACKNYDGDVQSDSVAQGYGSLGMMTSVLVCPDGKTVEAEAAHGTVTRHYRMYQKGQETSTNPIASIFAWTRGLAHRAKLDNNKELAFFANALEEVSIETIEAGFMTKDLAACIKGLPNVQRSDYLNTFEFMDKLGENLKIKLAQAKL

`COC1(c2onc(-c3c(Cl)cc(Cl)cc3Cl)c2C(=O)n2cc(C)c3c(/C=C/C(=O)O)cccc32)COC1` [Example 4, (2E)-3-(1-{[5-(3-Methoxyoxetan-3-yl)-3-(2,4,6-trichlorophenyl)-1,2-oxazol-4-yl]carbonyl}-3-methyl-1H-indol-4-yl)prop-2-enoic acid]: the results for the half-maximal inhibitory concentration (IC50) (on IDH1R132C; in assay [1] (setting [3])) were 56 nM and 27 nM, respectively. The response vs control in vivo at 75 mg/kg in assay [2] (setting [4]) amounted to 15%.

Take `CC1(c2onc(-c3c(Cl)cc(Cl)cc3Cl)c2C(=O)n2cc3c4c(cccc42)/C(=C/C(=O)O)CC3)COC1` [Example 8, (2E)-[1-{[5-(3-Methyloxetan-3-yl)-3-(2,4,6-trichlorophenyl)-1,2-oxazol-4-yl]carbonyl}-3,4-dihydrobenzo[cd]indol-5(1H)-ylidene]ethanoic acid]: the figures for the IC50 (on IDH1R132C; in assay [1] (setting [3])) were 55 nM and 22 nM, respectively. Also, the response vs control in vivo at 75 mg/kg in assay [2] (setting [4]) is 67%.

On to `Cc1cn(C(=O)c2c(-c3c(Cl)cc(Cl)cc3Cl)noc2C2(C)CCC2)c2cccc(/C=C/C(=O)O)c12` [Example 10, (2E)-3-(3-Methyl-1-{[5-(1-methylcyclobutyl)-3-(2,4,6-trichlorophenyl)-1,2-oxazol-4-yl]carbonyl}-1H-indol-4-yl)prop-2-enoic acid], for which the IC50 came to 179 nM at IDH1R132C and 50 nM in assay [1] (setting [3]). In assay [2] (setting [4]), the response vs control in vivo at 75 mg/kg came to 27%.

On to `COC1(c2onc(-c3c(Cl)cc(Cl)cc3Cl)c2C(=O)n2cc3c4c(cccc42)/C(=C/C(=O)O)CC3)CCC1` [Example 12, (2E)-[1-{[5-(1-Methoxycyclobutyl)-3-(2,4,6-trichlorophenyl)-1,2-oxazol-4-yl]carbonyl}-3,4-dihydrobenzo[cd]indol-5(1H)-ylidene]ethanoic acid], for which the IC50 at IDH1R132C was 144 nM; in assay [1] (setting [3]), 24 nM. Further, the response vs control in vivo at 75 mg/kg in assay [2] (setting [4]) is 7%.

`CC(C)(F)c1onc(-c2c(Cl)cc(Cl)cc2Cl)c1C(=O)n1cc2c3c(cccc31)/C(=C/C(=O)O)CC2` [Example 13, (2E)-[1-{[5-(2-Fluoropropan-2-yl)-3-(2,4,6-trichlorophenyl)-1,2-oxazol-4-yl]carbonyl}-3,4-dihydrobenzop[cd]indol-5(1H)-ylidene]ethanoic acid]: the IC50 is 148 nM on IDH1R132C and 51 nM in assay [1] (setting [3]). The response vs control in vivo at 75 mg/kg in assay [2] (setting [4]) worked out at 28%.

Take `CC(C)(F)c1onc(-c2c(F)cc(Cl)cc2Cl)c1C(=O)n1cc2c3c(cccc31)/C(=C/C(=O)O)CC2` [Example 16, (2E)-[1-{[3-(2,4-Dichloro-6-fluorophenyl)-5-(2-fluoropropan-2-yl)-1,2-oxazol-4-yl]carbonyl}-3,4-dihydrobenzo[cd]indol-5(1H)-ylidene]ethanoic acid]: the values for the IC50 (on IDH1R132C; in assay [1] (setting [3])) were 107 nM and 89 nM, respectively. Also, in assay [2] (setting [4]), the response vs control in vivo at 75 mg/kg came out at 32%.

Consider `CC(C)(F)c1onc(-c2c(Cl)cc(Cl)cc2Cl)c1C(=O)n1ccc2c3c(ccc21)CCC(C(=O)O)C3` (stereo not drawn) [Example 18, 3-{[5-(2-Fluoropropan-2-yl)-3-(2,4,6-trichlorophenyl)-1,2-oxazol-4-yl]carbonyl}-6,7,8,9-tetrahydro-3H-Benzo[e]indole-8-carboxylic acid], for which the IC50 on IDH1R132C amounted to 162 nM; in assay [1] (setting [3]), 136 nM. In assay [2] (setting [4]), the response vs control in vivo at 75 mg/kg turned out to be 56%.

Turning to `CC1(c2onc(-c3c(Cl)cc(Cl)cc3Cl)c2C(=O)n2cc3c4c(cccc42)/C(=C/C(=O)O)CC3)CC(F)(F)C1` [Example 19], the half-maximal inhibitory concentration (IC50) on IDH1R132C was determined as 169 nM; in assay [1] (setting [3]) it was 64 nM. Besides, the response vs control in vivo at 75 mg/kg in assay [2] (setting [4]) was determined as 79%.

Turning to `Cc1cn(C(=O)c2c(-c3c(Cl)cc(Cl)cc3Cl)noc2C(C)(C)F)c2cccc(/C=C/C(=O)O)c12` [Example 21, (2E)-3-(1-{[5-(2-Fluoropropan-2-yl)-3-(2,4,6-trichlorophenyl)-1,2-oxazol-4-yl]carbonyl}-3-methyl-1H-indol-4-yl)prop-2-enoic acid], the IC50 at IDH1R132C was determined as 95 nM; in assay [1] (HT-1080, read-out: Test Example 3 IC50 (nM)) it was 56 nM. In assay [2], the response vs control in vivo at 75 mg/kg was found to be 14%.

With `CC(C)(C)c1onc(-c2c(Cl)cc(Cl)cc2Cl)c1C(=O)n1ccc2c(/C=C/C(=O)O)cccc21` [Example 22, (2E)-3-(1-{[5-(tert-Butyl)-3-(2,4,6-trichlorophenyl)-1,2-oxazol-4-yl]carbonyl}-1H-indol-4-yl)prop-2-enoic acid], the IC50 came to 189 nM on IDH1R132C and 109 nM in assay [1] (setting [3]). The response vs control in vivo at 75 mg/kg in assay [2] (setting [4]) was found to be 13%.

Turning to `Cc1cn(C(=O)c2c(-c3c(Cl)cc(Cl)cc3Cl)noc2C(C)C)c2cccc(/C=C/C(=O)O)c12` [Example 29, (2E)-3-(1-{[5-(Propan-2-yl)-3-(2,4,6-trichlorophenyl)-1,2-oxazol-4-yl]carbonyl}-3-methyl-1H-indol-4-yl)prop-2-enoic acid], the results for the IC50 (on IDH1R132C; in assay [1] (setting [3])) were 102 nM and 94 nM, respectively. Further, the response vs control in vivo at 75 mg/kg in assay [2] (setting [4]) came out at 39%.

As to `Cc1cn(C(=O)c2c(-c3c(Cl)cc(Cl)cc3Cl)noc2C(C)(C)C)c2cccc(/C=C/C(=O)O)c12` [Example 33, (2E)-3-(1-{[5-(tert-Butyl)-3-(2,4,6-trichlorophenyl)-1,2-oxazol-4-yl]carbonyl}-3-methyl-1H-indol-4-yl)prop-2-enoic acid], the IC50 is 193 nM on IDH1R132C and 43 nM in assay [1] (setting [3]). Also, the response vs control in vivo at 75 mg/kg in assay [2] (setting [4]) turned out to be 15%.

For `CC(C)(C)c1noc(-c2c(Cl)cc(Cl)cc2Cl)c1C(=O)n1ccc2c(/C=C/C(=O)O)cccc21` [Example 34, (2E)-3-(1-{[3-(tert-Butyl)-5-(2,4,6-trichlorophenyl)-1,2-oxazol-4-yl]carbonyl}-1H-indol-4-yl)prop-2-enoic acid], the values for the 50% inhibitory concentration (IC50) (at IDH1R132C; in assay [1] (setting [3])) were 364 nM and 209 nM, respectively. Further, the response vs control in vivo at 75 mg/kg in assay [2] (setting [4]) came out at 55%.

Turning to `CC(C)(C)c1onc(-c2c(F)cc(Cl)cc2Cl)c1C(=O)n1ccc2c(/C=C/C(=O)O)cccc21` [Example 35, (2E)-3-(1-{[5-(tert-Butyl)-3-(2,4-dichloro-6-fluorophenyl)-1,2-oxazol-4-yl]carbonyl}-1H-indol-4-yl)prop-2-enoic acid], the IC50 on IDH1R132C came out at 161 nM; in assay [1] (setting [3]), 244 nM. Besides, the response vs control in vivo at 75 mg/kg in assay [2] (setting [4]) came to 64%.

`CC(C)(F)c1onc(-c2c(Cl)cc(Cl)cc2Cl)c1C(=O)n1ccc2c(/C=C/C(=O)O)cccc21` [Example 36, (2E)-3-(1-{[5-(2-Fluoropropan-2-yl)-3-(2,4,6-trichlorophenyl)-1,2-oxazol-4-yl]carbonyl}-1H-indol-4-yl)prop-2-enoic acid]: the IC50 worked out at 109 nM at IDH1R132C and 170 nM in assay [1] (setting [3]). Further, in assay [2] (setting [4]), the response vs control in vivo at 75 mg/kg was found to be 43%.

Regarding `CC1(c2onc(-c3c(Cl)cc(Cl)cc3Cl)c2C(=O)n2ccc3c(/C=C/C(=O)O)cccc32)CC1` [Example 37, (2E)-3-(1-{[5-(1-Methylcyclopropyl)-3-(2,4,6-trichlorophenyl)-1,2-oxazol-4-yl]carbonyl}-1H-indol-4-yl)prop-2-enoic acid], the results for the IC50 (on IDH1R132C; in assay [1] (setting [3])) were 117 nM and 149 nM, respectively. In assay [2] (setting [4]), the response vs control in vivo at 75 mg/kg turned out to be 35%.

For `Cc1cc(Cl)c(-c2noc(C(C)(C)C)c2C(=O)n2ccc3c(/C=C/C(=O)O)cccc32)c(Cl)c1` [Example 38, (2E)-3-(1-{[5-(tert-Butyl)-3-(2,6-dichloro-4-methylphenyl)-1,2-oxazol-4-yl]carbonyl}-1H-indol-4-yl)prop-2-enoic acid], the figures for the half-inhibitory concentration (IC50) (at IDH1R132C; in assay [1] (setting [3])) were 234 nM and 200 nM, respectively. In assay [2] (setting [4]), the response vs control in vivo at 75 mg/kg was determined as 61%.

Regarding `CC(C)(C)c1onc(-c2c(Cl)cc(Cl)cc2Cl)c1C(=O)n1cc(F)c2c(/C=C/C(=O)O)cccc21` [Example 40, (2E)-3-(1-{[5-(tert-Butyl)-3-(2,4,6-trichlorophenyl)-1,2-oxazol-4-yl]carbonyl}-3-fluoro-1H-indol-4-yl)prop-2-enoic acid], the IC50 at IDH1R132C was found to be 159 nM; in assay [1] (setting [3]), 57 nM. Besides, the response vs control in vivo at 75 mg/kg in assay [2] (setting [4]) was 18%.

Consider `COCC(C)(C)c1onc(-c2c(Cl)cc(Cl)cc2Cl)c1C(=O)n1ccc2c(/C=C/C(=O)O)cccc21` [Example 42, (2E)-3-(1-{[5-(1-Methoxy-2-methylpropan-2-yl)-3-(2,4,6-trichlorophenyl)-1,2-oxazol-4-yl]carbonyl}-1H-indol-4-yl)prop-2-enoic acid], for which the figures for the IC50 (at IDH1R132C; in assay [1] (setting [3])) were 217 nM and 178 nM, respectively. Moreover, in assay [2] (setting [4]), the response vs control in vivo at 75 mg/kg is 84%.

For orientation: IC50 means the concentration that gives 50% inhibition.

The values are drawn from patent publication US10040791B2, “Isoxazole derivative as mutant isocitrate dehydrogenase 1 inhibitor” (Daiichi Sankyo Company, Limited, priority 2014, dated 2018).
